From patent US10933052B2, “Compositions and methods for the treatment of eye disorders” (Cellix Bio Private Limited, priority 2017, dated 2021) come the findings set out here.

The nature of this data set: Ocular pharmacokinetic study of CLX-156 formulation, topical administration in each eye. It is filed as in vivo, male New Zealand white rabbits. To be noted: rabbit, topical 50 μL in each eye. The method, then:
A pharmacokinetics study was conducted on male New Zealand white rabbits to evaluate the ocular pharmacokinetics of CLX-156 (Pilocarpine-(R)-Lipoate) formulation. Animals were topically administered with 50 μL of CLX-156 in each eye, and the aqueous humour and blood samples were collected followed by sacrifice of the animals for collection of lens, cornea and iris region at a pre-determined time.
The aqueous humour and tissue concentration of Pilocarpine and (R)-Lipoic acid were measured at 0.5 h, 1 h, 2 h, 4 h and 8 h in 3 animals/time point/group (as provided in Table 2 and Table 3 hereinbelow). Further, (R)-Lipoic acid concentration was measured in the lens region, and Pilocarpine concentration was measured in iris region of each of the treated animals (as provided in Table 2 and Table 3). All the samples were analyzed using LCMS-MS by a fit for purpose method.

[1] abbreviates: analyte (R)-Lipoic acid, aqueous humour.
Where [2] appears, read: analyte (R)-Lipoic acid, lens region.
The mark [3] stands for this setting: analyte Pilocarpine, aqueous humour.
[4] abbreviates: analyte Pilocarpine, iris region.

With “5-(((3R,4S)-4-ethyl-5-oxotetrahydro furan-3-yl)methyl)-1-methyl-1H-imidazol-1-ium (R)-5-(1,2-dithiolan-3-yl)pentanoate [CLX-156]”, under setting [1], the “AUClast, (R)-Lipoic acid in aqueous humour” value was found to be 17271 ng·h/mL; the “Cmax, concentration of (R)-Lipoic acid in aqueous humour” value turned out to be 21067 ng/mL; the “Tmax, (R)-Lipoic acid in aqueous humour” value worked out at 30 min. Further, under setting [2], the “AUClast, (R)-Lipoic acid in lens region” value turned out to be 0.364 µg·h/g and the “Tmax, (R)-Lipoic acid in lens region” value came to 30 min. Besides, under setting [3], the “AUClast, Pilocarpine in aqueous humour” value stood at 6359 ng·h/mL; the “Cmax, concentration of Pilocarpine in aqueous humour” value stood at 6480 ng/mL; the “Tmax, Pilocarpine in aqueous humour” value was 30 min; the “time up to which pilocarpine was detectable in aqueous humour” value is recorded as “up to 4 h”. Besides, under setting [4], the “AUClast, Pilocarpine in iris region” value is 1.491 µg·h/g; the “Tmax, Pilocarpine in iris region” value turned out to be 30 min; the “time up to which pilocarpine was detectable in iris region” value is “up to 2 h”.
